From patent EP3412361A1, “METHOD FOR PREPARING PARTICULATE FORM CAESIUM-REMOVAL INORGANIC ION ADSORBENT AND PRODUCT AND APPLICATION THEREOF” (Tsinghua University, priority 2015, dated 2017)

Assay: Monolayer dispersion threshold of metal salt on silica gel by XRD diffraction peak intensity extrapolation
Assay type: physicochemical
Details: salt impregnated on silica gel at 90 °C, dried 120 °C 10 h
Description: Through equal volume impregnation method, silica gel pellets is impregnated with a series of different concentrations of salt solution containing M^n+ ion. The impregnated solid materials are dried in an oven to obtain a silica gel intermediate M/SiO2 with a different amounts of M salt on the surface. Based on monolayer dispersion principle of a metal salt on the surface of carrier, the monolayer dispersion threshold of various kinds of M^n+ ion salts on silica gel surface is determined by X - ray diffraction method. The value is the monolayer loading of various salts on the surface of silica gel carrier.
Further, in the step (1), it is necessary to determine monolayer dispersion threshold of M^n+ ion salt on the surface of silica gel, which may be measured by loading a series of different amounts of the M^n+ ion salt onto the surface of silica gel by the solution impregnation method followed by drying to obtain the sample to be tested.
The silica gel mass is 5-10 g, and the loading amount of M^n+ ion salt on the silica gel is 0.02g, 0.05g, 0.1g, 0.5g, 1.0g, 2.0g, 3.0g, 4.0g, 5.0g, 6.0 g per g silica gel; the ratio by volume of the M^n+ ion solution to the silica gel is 0.5-2.
The obtained samples series is subjected to X-ray diffraction (XRD) and the strongest diffraction peak intensity (y-axis) is linearly correlated with the corresponding M^n+ ion salt loading (x-axis) in which the intercept on the x-axis is the monolayer dispersion threshold.
Further, in the step (1), the impregnation process is carried out in a water bath at a temperature of 90 °C, and the mixture is continuously stirred until the liquid is completely evaporated and the solute M^n+ ion salt is fully supported on the silica gel surface.
Further, in the step (1), the silica gel intermediate M/ SiO2 is dried in an oven for 10 h at a temperature of 120 °C.
Then, 1 g of silica gel pellets were added to each beaker and the beaker was placed in a water bath at a temperature of 90 °C. In the process of evaporation of water, the mixture was being stirred with a glass rod until the water evaporated and the pellets were basically dry. The beaker was dried in an oven at 120 °C for 10 hours.
Then, 1 g of silica gel pellets were added to each beaker and the beaker was placed in a water bath at a temperature of 90 °C.

Row | SMILES | monolayer dispersion threshold on silica gel [g/g]
1 | CC(=O)[O-].CC(=O)[O-].O.O.[Zn+2] [Zn(AC)2, zinc acetate] | 0.18
2 | O=S(=O)([O-])[O-].[Cu+2] [CuSO4, copper sulfate] | 0.79
3 | O.O.O.O.O.O.O=[N+]([O-])[O-].O=[N+]([O-])[O-].[Co+2] [Co(NO3)2, cobalt nitrate] | 0.63
4 | O.O=[N+]([O-])[O-].O=[N+]([O-])[O-].[O]=[Zr+2] [ZrO(NO3)2] | 1.02
5 | [Cl][Fe]([Cl])[Cl] [FeCl3, ferric chloride] | 0.43
